Experimental data: article PMC4786259 (PLoS ONE, 2016)
Entries after “also recorded” stand apart in the source; their conditions may differ.

Columns and labels:
5-HT2B [1] = biological target: T1, 5-HT2B (Homo sapiens, UniProt P41595); test: PDSP radioligand competition binding; conditions: radioligand [^3H]LSD; read-out: In Vitro Affinity
T1 construct: expressed in transfected cells

hVMAT2 = biological target: T2, hVMAT2 (Homo sapiens, UniProt Q05940); test: Vesicular 3H-DA uptake in vesicles isolated from HEK cells overexpressing VMAT2; assay type: biochemical
T2 construct: expressed in transfected cells; pcDNA3.1 construct with zeocin resistance
T2 sequence (Q05940 whole entry): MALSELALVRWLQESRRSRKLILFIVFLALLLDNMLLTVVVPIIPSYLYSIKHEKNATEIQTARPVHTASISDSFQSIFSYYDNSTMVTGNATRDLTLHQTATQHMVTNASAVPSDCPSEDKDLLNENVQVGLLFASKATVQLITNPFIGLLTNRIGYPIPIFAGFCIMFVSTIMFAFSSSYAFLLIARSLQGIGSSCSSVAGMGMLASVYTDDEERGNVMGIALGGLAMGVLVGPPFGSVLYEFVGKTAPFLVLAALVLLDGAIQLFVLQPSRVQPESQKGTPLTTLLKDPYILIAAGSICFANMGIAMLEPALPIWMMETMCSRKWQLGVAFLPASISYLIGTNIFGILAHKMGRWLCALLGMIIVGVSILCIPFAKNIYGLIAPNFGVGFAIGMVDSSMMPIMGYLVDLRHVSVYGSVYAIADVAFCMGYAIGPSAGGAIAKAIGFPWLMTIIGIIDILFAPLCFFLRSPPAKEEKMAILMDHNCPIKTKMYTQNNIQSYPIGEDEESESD

H2 = H2 (Homo sapiens, UniProt P25021); test: PDSP radioligand competition binding; conditions: radioligand [^3H]Cimetidine; read-out: In vitro Affinity
Sequence of H2 (P25021 whole entry): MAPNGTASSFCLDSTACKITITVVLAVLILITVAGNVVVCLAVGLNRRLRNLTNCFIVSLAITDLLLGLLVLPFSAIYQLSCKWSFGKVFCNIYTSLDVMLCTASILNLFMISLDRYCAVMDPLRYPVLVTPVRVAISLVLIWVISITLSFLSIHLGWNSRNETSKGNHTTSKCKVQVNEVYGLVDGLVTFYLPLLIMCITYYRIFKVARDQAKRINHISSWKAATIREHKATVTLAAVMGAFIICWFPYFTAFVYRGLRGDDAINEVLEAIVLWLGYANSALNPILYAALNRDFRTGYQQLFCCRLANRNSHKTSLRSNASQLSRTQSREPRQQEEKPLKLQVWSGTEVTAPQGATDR

D4 = biological target: T3, D4 (Homo sapiens, UniProt P21917); test: PDSP radioligand competition binding; conditions: radioligand [^3H]N-methyl Spiperone; read-out: In Vitro Affinity
T3 construct: expressed in transfected cells
T3 sequence (P21917 1-419): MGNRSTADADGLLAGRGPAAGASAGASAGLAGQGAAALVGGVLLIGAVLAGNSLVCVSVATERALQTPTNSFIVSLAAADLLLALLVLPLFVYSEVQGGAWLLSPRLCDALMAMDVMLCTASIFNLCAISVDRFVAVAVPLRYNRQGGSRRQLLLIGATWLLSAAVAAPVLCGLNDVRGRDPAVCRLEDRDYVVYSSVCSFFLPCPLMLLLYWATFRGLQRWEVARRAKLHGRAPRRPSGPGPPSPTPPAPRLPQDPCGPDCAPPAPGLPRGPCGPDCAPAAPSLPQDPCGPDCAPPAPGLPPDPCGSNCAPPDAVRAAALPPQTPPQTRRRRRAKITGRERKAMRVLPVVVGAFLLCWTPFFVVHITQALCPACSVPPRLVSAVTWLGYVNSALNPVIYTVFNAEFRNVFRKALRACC

male C57BL/6J mice = test: DOI-induced head-twitch response; assay type: in vivo
hDAT = hDAT (Homo sapiens, UniProt Q01959); test: Whole cell 3H-dopamine uptake in HEK-DAT cells
Sequence of hDAT (Q01959 whole entry): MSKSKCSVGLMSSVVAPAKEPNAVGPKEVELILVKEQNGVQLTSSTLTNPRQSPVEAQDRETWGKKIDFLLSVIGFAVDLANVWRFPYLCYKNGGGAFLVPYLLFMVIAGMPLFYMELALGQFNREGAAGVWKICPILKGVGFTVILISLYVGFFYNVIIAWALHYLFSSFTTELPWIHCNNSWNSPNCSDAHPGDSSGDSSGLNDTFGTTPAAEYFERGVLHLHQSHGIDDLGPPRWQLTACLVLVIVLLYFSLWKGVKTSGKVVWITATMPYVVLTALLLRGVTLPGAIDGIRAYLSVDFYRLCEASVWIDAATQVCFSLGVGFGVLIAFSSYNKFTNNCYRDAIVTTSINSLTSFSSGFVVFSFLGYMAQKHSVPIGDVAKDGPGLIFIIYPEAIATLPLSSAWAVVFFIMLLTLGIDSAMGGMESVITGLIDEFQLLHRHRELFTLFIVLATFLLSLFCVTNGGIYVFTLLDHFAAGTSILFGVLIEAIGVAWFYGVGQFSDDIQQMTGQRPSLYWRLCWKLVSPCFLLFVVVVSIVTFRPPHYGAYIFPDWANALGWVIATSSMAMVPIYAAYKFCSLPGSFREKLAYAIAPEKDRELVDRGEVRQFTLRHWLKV

5-HT7 [2] = biological target: T4, 5-HT7 (Homo sapiens, UniProt P34969); test: PDSP radioligand competition binding; conditions: radioligand [^3H]LSD; read-out: In Vitro Affinity
T4 construct: expressed in transfected cells
T4 sequence (P34969 whole entry, species assumed): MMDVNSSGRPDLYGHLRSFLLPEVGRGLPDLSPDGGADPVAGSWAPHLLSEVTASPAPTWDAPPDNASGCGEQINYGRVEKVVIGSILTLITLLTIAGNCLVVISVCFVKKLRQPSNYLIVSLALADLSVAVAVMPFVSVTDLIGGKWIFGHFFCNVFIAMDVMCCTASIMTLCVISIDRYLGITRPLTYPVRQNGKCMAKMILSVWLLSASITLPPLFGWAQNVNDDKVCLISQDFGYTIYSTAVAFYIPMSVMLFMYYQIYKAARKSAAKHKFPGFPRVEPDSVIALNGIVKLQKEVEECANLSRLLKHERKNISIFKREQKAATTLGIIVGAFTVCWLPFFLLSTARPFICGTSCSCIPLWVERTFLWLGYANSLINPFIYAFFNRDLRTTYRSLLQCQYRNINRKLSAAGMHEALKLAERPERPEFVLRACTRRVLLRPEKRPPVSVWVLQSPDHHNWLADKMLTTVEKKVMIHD

5-HT2A [3] = biological target: T5, 5-HT2A (Homo sapiens, UniProt P28223); test: PDSP receptor functional assay; assay type: cell-based
T5 construct: expressed in transfected cells
T5 sequence (P28223 whole entry, looked up): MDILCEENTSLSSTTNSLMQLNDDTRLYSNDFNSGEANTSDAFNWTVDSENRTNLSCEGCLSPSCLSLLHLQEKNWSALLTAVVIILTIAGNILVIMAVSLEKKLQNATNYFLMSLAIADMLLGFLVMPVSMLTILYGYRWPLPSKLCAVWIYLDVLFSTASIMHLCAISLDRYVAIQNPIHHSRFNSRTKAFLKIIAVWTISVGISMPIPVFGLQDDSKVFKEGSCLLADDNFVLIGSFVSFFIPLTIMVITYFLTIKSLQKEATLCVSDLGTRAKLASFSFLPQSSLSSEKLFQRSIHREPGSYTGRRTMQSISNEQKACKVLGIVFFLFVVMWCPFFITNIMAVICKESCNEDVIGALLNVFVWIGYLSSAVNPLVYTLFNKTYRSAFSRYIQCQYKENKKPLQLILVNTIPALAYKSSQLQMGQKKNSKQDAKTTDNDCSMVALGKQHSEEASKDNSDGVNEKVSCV

male B6129 hybrid mice = test: Clozapine drug discrimination (substitution); assay type: in vivo
Method: Adult male B6129 hybrid mice (n = 12) were trained to respond under a FR10 schedule and were reinforced by presentation of sweetened milk as described previously. The drug and vehicle lever positions were counterbalanced between groups to control for olfactory cues. All injections were given subcutaneously with a pre-session injection time of 30 minutes. Training occurred on a double alternation injection schedule with two days of VEH followed by two days of CLZ and repeated (VEH, VEH, CLZ, CLZ, VEH, VEH etc.). In order for a mouse to pass a training day it had to meet three criteria: (1) complete the first fixed ratio (FR) on the condition-appropriate lever, (2) at least 80% of the total responses were made on the condition-appropriate lever, and (3) at least 10 responses per minute were made during the session. Drug testing was conducted approximately two times per week with at least two training days in between. To be eligible for testing, mice were required to pass both a drug and vehicle training day consecutively. […] Responses on both levers were reinforced.
A p<0.05 was considered significant.

D5 [4] = biological target: T6, D5 (Homo sapiens, UniProt P21918); test: PDSP receptor functional assay; assay type: cell-based
T6 sequence (P21918 whole entry, looked up): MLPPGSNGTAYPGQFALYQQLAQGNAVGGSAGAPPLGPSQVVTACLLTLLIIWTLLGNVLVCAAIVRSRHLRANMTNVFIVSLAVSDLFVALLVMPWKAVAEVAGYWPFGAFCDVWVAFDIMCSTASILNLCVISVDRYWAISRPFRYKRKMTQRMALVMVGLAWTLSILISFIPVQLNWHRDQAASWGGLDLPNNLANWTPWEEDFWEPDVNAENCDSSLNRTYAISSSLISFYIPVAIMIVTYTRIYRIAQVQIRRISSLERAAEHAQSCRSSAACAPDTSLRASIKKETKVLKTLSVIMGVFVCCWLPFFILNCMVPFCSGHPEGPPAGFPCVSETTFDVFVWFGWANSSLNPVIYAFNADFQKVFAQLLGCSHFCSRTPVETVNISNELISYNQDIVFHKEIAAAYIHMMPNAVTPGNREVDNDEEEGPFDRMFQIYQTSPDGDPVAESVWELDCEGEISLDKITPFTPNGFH

[5] = rats; cited from earlier work
5-HT2A [6] = biological target: T5, 5-HT2A; test: PDSP radioligand competition binding; conditions: radioligand [^3H]Ketanserin; read-out: In Vitro Affinity
5-HT2B [7] = biological target: T1, 5-HT2B; test: PDSP receptor functional assay; assay type: cell-based
[8] = Dynamic light scattering to test for colloidal aggregation; assay type: physicochemical
Method: Measurements were made at room temperature using a DynaPro MS/X (Wyatt Technology) with a 55 mW laser at 826.6 nm. The laser power was 100%, and the detector angle was 90° with samples run in duplicate.

5-HT7 [9] = biological target: T4, 5-HT7; test: PDSP receptor functional assay; assay type: cell-based
5-HT1A = biological target: T7, 5-HT1A (Homo sapiens, UniProt P08908); test: PDSP radioligand competition binding; conditions: radioligand [^3H]WAY100635; read-out: In Vitro Affinity
T7 construct: expressed in transfected cells
T7 sequence (P08908 1-422): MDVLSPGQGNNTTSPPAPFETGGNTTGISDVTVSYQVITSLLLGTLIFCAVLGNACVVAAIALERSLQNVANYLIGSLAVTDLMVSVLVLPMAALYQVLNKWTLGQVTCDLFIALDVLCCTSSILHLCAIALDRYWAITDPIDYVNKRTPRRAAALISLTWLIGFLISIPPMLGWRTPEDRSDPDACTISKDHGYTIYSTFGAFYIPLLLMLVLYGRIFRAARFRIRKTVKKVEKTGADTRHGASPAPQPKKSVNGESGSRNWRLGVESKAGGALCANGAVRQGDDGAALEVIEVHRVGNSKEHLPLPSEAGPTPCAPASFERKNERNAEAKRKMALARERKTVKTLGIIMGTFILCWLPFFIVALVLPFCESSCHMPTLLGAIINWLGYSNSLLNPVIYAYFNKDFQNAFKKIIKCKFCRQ

hDAT and hVMAT2 = test: Whole cell 3H-dopamine uptake in HEK-DAT/VMAT2 cells; conditions: nuciferine pre-treatment
β3-AR = β3-AR (Homo sapiens, UniProt P13945); test: PDSP radioligand competition binding; conditions: radioligand [^3H]CGP12177; read-out: In vitro Affinity
Sequence of β3-AR (P13945 whole entry): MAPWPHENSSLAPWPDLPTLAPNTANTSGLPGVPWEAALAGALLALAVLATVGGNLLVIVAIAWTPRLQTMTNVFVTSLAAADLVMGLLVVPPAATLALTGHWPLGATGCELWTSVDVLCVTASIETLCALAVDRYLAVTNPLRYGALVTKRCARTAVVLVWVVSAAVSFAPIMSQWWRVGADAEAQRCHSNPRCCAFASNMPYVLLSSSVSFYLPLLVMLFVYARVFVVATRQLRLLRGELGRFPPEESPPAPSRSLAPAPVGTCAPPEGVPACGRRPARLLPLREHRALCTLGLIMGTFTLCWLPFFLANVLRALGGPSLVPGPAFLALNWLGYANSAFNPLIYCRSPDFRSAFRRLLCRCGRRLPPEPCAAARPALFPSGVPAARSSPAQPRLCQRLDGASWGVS

D5 [10] = biological target: T6, D5; test: PDSP radioligand competition binding; conditions: radioligand [^3H]SCH23390

T1 sequence (P41595 whole entry, species assumed): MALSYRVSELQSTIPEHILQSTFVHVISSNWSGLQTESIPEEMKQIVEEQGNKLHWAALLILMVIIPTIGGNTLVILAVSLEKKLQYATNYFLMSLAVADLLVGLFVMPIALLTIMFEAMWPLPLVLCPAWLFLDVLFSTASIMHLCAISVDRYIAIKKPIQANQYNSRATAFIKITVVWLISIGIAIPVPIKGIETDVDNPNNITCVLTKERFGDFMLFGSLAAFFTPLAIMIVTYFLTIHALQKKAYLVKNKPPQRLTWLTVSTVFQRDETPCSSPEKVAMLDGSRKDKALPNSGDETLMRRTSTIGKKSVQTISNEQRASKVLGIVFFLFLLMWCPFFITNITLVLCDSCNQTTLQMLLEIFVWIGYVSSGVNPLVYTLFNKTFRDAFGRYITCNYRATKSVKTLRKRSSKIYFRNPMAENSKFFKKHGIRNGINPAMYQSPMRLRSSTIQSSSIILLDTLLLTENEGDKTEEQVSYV

For COc1cc2c3c(c1OC)-c1ccccc1C[C@H]3N(C)CC2 [nuciferine], the Ki (5-HT2B [1]) was 41 nM, the “effect on DA uptake in isolated vesicles” value (hVMAT2) was “no effect” and the Ki (H2) was 1660 nM. The Ki (D4) was 1390 nM, the DOI-induced head-twitches (male C57BL/6J mice; 1 mg/kg i.p., 15 min prior to 1.0 mg/kg DOI) was “no statistical effect” and the DOI-induced head-twitches (male C57BL/6J mice; 3 mg/kg i.p., 15 min prior to 1.0 mg/kg DOI, at 5, 10, 15 and 20 min) was “decreased head-twitches; also recorded: statistically significant (p<0.05) reductions in the numbers of head-twitches”. The DOI-induced head-twitches (male C57BL/6J mice; 3 mg/kg i.p., 30 min prior to DOI) was “statistically significant (p<0.05) reductions in the numbers of head-twitches”, the DOI-induced head-twitches (male C57BL/6J mice; 3 mg/kg i.p., 45 min prior to DOI) was “failed to show significant alterations in head-twitches” and the DOI-induced head-twitches (male C57BL/6J mice; 3 mg/kg i.p., 60 min prior to DOI) was “failed to show significant alterations in head-twitches”. For the same molecule, the DOI-induced head-twitches (male C57BL/6J mice; 3 mg/kg s.c., 15 min prior to 1.0 mg/kg DOI, at 10, 15 and 20 min) was “attenuated DOI-induced head-twitches”, the DOI-induced head-twitches (male C57BL/6J mice; 10 mg/kg i.p., 15 min prior to 1.0 mg/kg DOI, at 5, 10, 15 and 20 min) was “decreased head-twitches” and the EC50 (hDAT) was 1.8 nM. The Ki (5-HT7 [2]) was 49.8 nM, the “Function Type” value (5-HT2A [3]) was “Antagonist” and the IC50 (5-HT2A [3]; 5-HT2A antagonist activity) was 478 nM. It also gave an EC50 (5-HT2A [3]; antagonist) of 478 nM, a drug lever responding (male B6129 hybrid mice; 10.0 mg/kg s.c., animals trained on 1.25 mg/kg clozapine) of 80.63% and an ED50 (male B6129 hybrid mice; Mus musculus, sc, 95% CI 3.09–9.48 mg/kg) of 5.42 mg/kg. For the same molecule, the “substitution for clozapine's discriminative cue” value (male B6129 hybrid mice; lower doses 0.1 mg/kg–3.0 mg/kg) was “failed to produce substitution”, the EC50 (D5 [4]) was 2600 nM and the “Function Type” value (D5 [4]) was “Partial agonist”. For the same molecule, the Emax (D5 [4]; partial agonist efficacy, read-out: maximal response) was 50%, the “crossing of the blood brain barrier” value [5] was “shown to cross the blood brain barrier” and the Ki (5-HT2A [6]) was 312 nM. The “Function Type” value (5-HT2B [7]) was “Antagonist”, the IC50 (5-HT2B [7]; 5-HT2B antagonist) was 1000 nM and the EC50 (5-HT2B [7]; antagonist) was 1000 nM. For the same molecule, the “light scattering above background” value ([8]; <= 10 μM, aqueous buffer) was “did not scatter light above background”, the colloidal aggregate formation ([8]; concentrations up to 10 μM) was “does not form aggregates” and the EC50 (5-HT7 [9]) was 150 nM. The “Function Type” value (5-HT7 [9]) was “Inverse agonist”, the IC50 (5-HT7 [9]) was 150 nM and the Ki (5-HT1A) was 77 nM. The “effect on dopamine uptake in HEK-DAT/VMAT2 cells” value (hDAT and hVMAT2) was “no effect”, the Ki (β3-AR) was 1100 nM and the “In Vitro Affinity” value (D5 [10]) was “(neg) [^3H]SCH23390”.
